Measured values: patent publication US9615577B2, “Herbicidally active cyclic dione compounds, or derivatives therefor, substituted by a phenyl which has an alkynyl-containing substituent” (Syngenta Limited, priority 2012, dated 2017)

Key:
Type in all cases: in vivo
[1] = tested on: Abutilon theophasti Medik. (ABUTH); test: Test 1A glasshouse assay for herbicidal activity, pre-emergence; conditions: 312 h, evaluated after 13 days, read-out: percentage phytotoxicity ABUTH
In short: (§1)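 Glasshouse spray test with visual phytotoxicity scoring (0–100%) after 13 days. Application timing: 1 day after sowing or after 8 days' cultivation, in 0.5% Tween 20 acetone/water.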

[2] = tested on: Abutilon theophasti Medik. (ABUTH); test: Test 1A glasshouse assay for herbicidal activity, post-emergence; conditions: 312 h, evaluated after 13 days, read-out: percentage phytotoxicity ABUTH
In short: as §1

[3] = tested on: Alopecurus myosuroides (ALOMY); test: as above; conditions: 312 h, evaluated after 13 days, read-out: percentage phytotoxicity ALOMY
In short: as §1

[4] = tested on: Amaranthus retroflexus (AMARE); test: as above; conditions: 312 h, evaluated after 13 days, read-out: percentage phytotoxicity AMARE
In short: as §1

[5] = tested on: Echinochloa crus-galli (ECHCG); test: as above; conditions: 312 h, evaluated after 13 days, read-out: percentage phytotoxicity ECHCG
In short: as §1

[6] = tested on: Beta vulgaris (BEAVA, sugar beet); test: Test 1B glasshouse assay for herbicidal activity, pre-emergence; conditions: 480 h, 20 DAA, read-out: percentage phytotoxicity BEAVA
Description: (§2) Seeds of a variety of monocotyledonous and dicotyledonous test plants are sown in standard soil in pots. The plants are cultivated for one day (for pre-emergence) or for about 12 days (range=10-13 days) (for post-emergence) under controlled conditions in a glasshouse (warm climate species at 24/18° C., cool climate species at 20/16° C., both at day/night; 16 hours light; 65% humidity).
(§3) An “instant formulation”, known as the “IF50”, containing 50 g/liter (i.e. 5% w/v) of the “technical” (i.e. unformulated) active ingredient is prepared by dissolving the active ingredient in a mixture of organic solvents and emulsifier, details of which are provided in the Table below. This IF50 is then mixed with a small, variable amount of acetone to aid dissolution, before addition of a 0.2% v/v aqueous solution of the adjuvant X-77 (which is a mixture of alkyl aryl polyoxyethylene glycols and free fatty acids in isopropanol, CAS Registry number 11097-66-8), as the aqueous diluent, to form an aqueous spray solution which contains a predetermined concentration of the active ingredient (which varies depending on the application rate of the active ingredient to the plants) and 0.2% v/v of the adjuvant X-77. This aqueous spray solution is then sprayed onto the plants, after one day's cultivation (for pre-emergence) or after about 12 days' cultivation (for post-emergence).
(§4) The test plants are then grown on, in a glasshouse (greenhouse) under controlled conditions (at either 24/18° C. or 20/16° C. (day/night) as mentioned above; 16 hours light; 65% humidity) and are watered twice daily. Either 15 days after application of the herbicide (15 DAA) (for post-emergence), or 20 days after application of the herbicide (20 DAA) (for pre-emergence), the test plants are evaluated visually, and an assessed percentage phytotoxicity score is given for each herbicidal application on each plant species (where 100%=total damage to plant; 0%=no damage to plant).
(§5) Cool climate crop plants: Triticum aestivum (TRZAW, winter wheat), Brassica napus (BRSNN, rape, also called oilseed rape or rapeseed), Beta vulgaris (BEAVA, sugar beet).

[7] = tested on: Brassica napus (BRSNN, rape); test: as above; conditions: 480 h, 20 DAA, read-out: percentage phytotoxicity BRSNN
Description: as §2, §3, §4, §5

[8] = tested on: Triticum aestivum (TRZAW, winter wheat); test: as above; conditions: 480 h, 20 DAA, read-out: percentage phytotoxicity TRZAW
Description: as §2, §3, §4, §5

[9] = tested on: Digitaria sanguinalis (DIGSA); test: as above; conditions: 480 h, 20 DAA, read-out: percentage phytotoxicity DIGSA
Description: as §2, §3, §4
(§6) Warm climate (“warm season”) grassy monocotyledonous weeds: Setaria faberi (SETFA), SORVU (Sorghum bicolor (L.) Moench ssp. Bicolor, or Sorghum vulgare Pers.), Digitaria sanguinalis (DIGSA), Echinochloa crus-galli (ECHCG), and Brachiaria plantaginea (BRAPL).

[10] = tested on: Echinochloa crus-galli (ECHCG); test: as above; conditions: 480 h, 20 DAA, read-out: percentage phytotoxicity ECHCG
Description: as §2, §3, §4, §6

[11] = tested on: SORVU (Sorghum bicolor (L.) Moench ssp. Bicolor, or Sorghum vulgare Pers.); test: as above; conditions: 480 h, 20 DAA, read-out: percentage phytotoxicity SORVU
Description: as §2, §3, §4, §6

Setaria faberi (SETFA) = test: as above; conditions: 480 h, 20 DAA, read-out: percentage phytotoxicity SETFA
Description: as §2, §3, §4, §6

[12] = tested on: Beta vulgaris (BEAVA, sugar beet); test: Test 1B glasshouse assay for herbicidal activity, post-emergence; conditions: 360 h; for plant injury at 125 g/ha: 125 g/ha application rate; for plant injury at 30 g/ha: 30 g/ha application rate
In short: (§7)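 Plants grown in soil at 20/16° C day/night, 16 h light, 65% humidity; sprayed after 1 day (pre-emergence) or ~12 days (post-emergence) with formulated compound in 0.2% v/v X-77 adjuvant. Visual % phytotoxicity scored 20 DAA (pre) or 15 DAA (post).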

[13] = tested on: Brassica napus (BRSNN, rape); test: as above; conditions: 360 h; for plant injury at 125 g/ha: 125 g/ha application rate; for plant injury at 30 g/ha: 30 g/ha application rate
In short: as §7

[14] = tested on: Triticum aestivum (TRZAW, winter wheat); test: as above; conditions: 360 h; for plant injury at 125 g/ha: 125 g/ha application rate; for plant injury at 30 g/ha: 30 g/ha application rate
In short: as §7

[15] = tested on: Brachiaria plantaginea (BRAPL); test: as above; conditions: Urochloa plantaginea; for pest or weed control at 125 g/ha: 125 g/ha application rate; for pest or weed control at 30 g/ha: 30 g/ha application rate
In short: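 Pots sown in standard soil; IF50 formulation diluted in 0.2% v/v X-77 and sprayed 1 day after sowing (pre-emergence) or ~12 days (post-emergence). Glasshouse at 24/18 or 20/16 °C, 16 h light, 65% humidity. Visual % phytotoxicity (0–100) scored 20 DAA pre-emergence, 15 DAA post-emergence.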

Row | Compound | pest or weed control at 250 g/ha [1] | pest or weed control at 30 g/ha [2] | pest or weed control at 250 g/ha [2] | pest or weed control at 30 g/ha [3] | pest or weed control at 250 g/ha [3] | pest or weed control at 30 g/ha [4] | pest or weed control at 250 g/ha [4] | pest or weed control at 30 g/ha [5] | pest or weed control at 250 g/ha [5] | plant injury at 250 g/ha [6] | plant injury at 250 g/ha [7] | plant injury at 250 g/ha [8] | plant injury at 125 g/ha [12] | plant injury at 125 g/ha [13] | plant injury at 125 g/ha [14] | pest or weed control at 125 g/ha [15] | plant injury at 30 g/ha [12] | plant injury at 30 g/ha [13] | plant injury at 30 g/ha [14] | pest or weed control at 30 g/ha [15] | also measured
1 | CC#Cc1cc(C)c(C2C(=O)CC(c3ccccn3)CC2=O)c(C)c1 (stereo not drawn) [Compound A-13] | 70% | 40% | 80% | 70% | 100% | 30% | 60% | 80% | 100% | 10% | 70% | 20% | 20% | 70% | 30% | 100% | – | – | – | – | pest or weed control at 30 g/ha ([1]; 30 g/ha): 30%; pest or weed control at 250 g/ha [9]: 100%; pest or weed control at 250 g/ha [10]: 90%; pest or weed control at 250 g/ha [11]: 80%; pest or weed control at 250 g/ha (Setaria faberi (SETFA)): 80%
2 | CC#Cc1cc(C)c(C2=C(OC(C)=O)CC(c3ccccn3)CC2=O)c(C)c1 (stereo not drawn) [Compound A-15] | 50% | 20% | 80% | 90% | 100% | 0% | 60% | 100% | 100% | – | – | – | 30% | 70% | 80% | 100% | 30% | 60% | 70% | 100% | plant injury at 125 g/ha [6]: 0%; plant injury at 125 g/ha [7]: 80%; plant injury at 125 g/ha [8]: 0%; pest or weed control at 125 g/ha [9]: 100%; pest or weed control at 125 g/ha [10]: 80%; pest or weed control at 125 g/ha [11]: 80%; pest or weed control at 125 g/ha (Setaria faberi (SETFA)): 80%
3 | CC#Cc1cc(Cl)c(C2C(=O)C3CCC(C3)C2=O)c(OC)c1 (stereo not drawn) [Compound A-12] | 0% | – | 50 to 60% | – | 90 to 100% | – | 0 to 10% | – | 100% | 10% | 20% | 30% | 20% | 80% | 60% | 100% | 0% | 60% | 40% | 70% | pest or weed control at 62.5 g/ha ([1]; 62.5 g/ha): 0%; pest or weed control at 62.5 g/ha ([2]; 62.5 g/ha): 0%; pest or weed control at 62.5 g/ha ([3]; 62.5 g/ha): 80%; pest or weed control at 62.5 g/ha ([4]; 62.5 g/ha): 0%; pest or weed control at 62.5 g/ha ([5]; 62.5 g/ha): 100%; pest or weed control at 250 g/ha [9]: 100%; pest or weed control at 250 g/ha [10]: 100%; pest or weed control at 250 g/ha [11]: 90%; pest or weed control at 250 g/ha (Setaria faberi (SETFA)): 100%
4 | CC#Cc1cc(C)c(C2C(=O)C3CCC(C3)C2=O)c(OC)c1 (stereo not drawn) [Compound A-10] | 0% | – | 80% | – | 100% | – | 50% | – | 100% | – | – | – | 20% | 60% | 80% | 100% | 20% | 40% | 60% | 90% | plant injury at 125 g/ha [6]: 0%; plant injury at 125 g/ha [7]: 0%; plant injury at 125 g/ha [8]: 20%; pest or weed control at 125 g/ha [9]: 90%; pest or weed control at 125 g/ha [10]: 90%; pest or weed control at 125 g/ha [11]: 80%; pest or weed control at 125 g/ha (Setaria faberi (SETFA)): 80%
